Data on 44 compounds can be found in patent US7550469B2, “Heterocyclic amide derivatives and their use as dopamine D3 receptor ligands” (Aventis Pharmaceuticals Inc., priority 2001, dated 2009).

For the experiment, the target named is T1, cloned human dopamine D3 receptors (Homo sapiens, UniProt P35462).
T1 construct: expressed in transfected cells; membrane homogenate
Briefly: [N-Methyl-3H]Spiroperidol binding to cloned human dopamine D3 receptors (Protocol 1). The source says: [N-Methyl-^3H]Spiroperidol Binding to Cloned Human Dopamine D3 Receptors
This assay measures the in vitro activity of compounds on cloned human dopamine (D3) receptors and predicts the direct dopamine-blocking properties of putative neuropsychiatric agents at human dopamine D3 receptors.
The D3 gene was isolated from a human striatal cDNA library (Stratagene). The gene was sequenced and sub-cloned into the expression vector RC/RSV (Invitrogen). CHO (Chinese Hamster Ovary) cells were stably transfected with 10 μg of the D3/RSV plasmid using the DOTAP method from Boehringer Mannheim and 72 clones that were G418 resistant were isolated. Using mRNA and binding displacement data a single high expressing clone was identified. This clone was then grown in large batches for the purpose of developing a 96 well format assay.
• 1. One plate (10 cm) with approximately 2-3 million D3 cells per plate is incubated with 1 ml of Trypsin-EDTA at room temperature for ˜2 min or until cells have lifted off plates. Four ml of Ham's F12+10% Fetal Bovine Serum+1% Penicillin/Streptomycin+G418 (400 μg/ml) medium are added to resuspend cells and 1 ml of this is added to each large plate (15 cm) containing 19 ml of the-same medium as mentioned above. • 2. The 5 large plates are incubated at 37° C.+5% CO2 for ˜3 days or until the cells are confluent. • 3. After these plates are confluent, they are split into 10 large plates. Medium is aspirated off, 2 ml of Trypsin-EDTA are added to each plate and plates are incubated at RT for 2 min or until cells have lifted off the plate. Eight ml of the F12 medium (same medium as #1 above) are added to each plate (10 ml total) to resuspend the cells and 5 ml are transferred to the 2 new plates containing 15 ml of the F12 media. • 4. The 10 large plates are incubated at 37° C.+5% CO2 for ˜2 days or until the cells are confluent. • 5. The 10 large plates are split into 60 large plates (using Trypsin-EDTA as #3 except 4 ml of F12 medium are added to resuspend cells and 1 ml is aliquoted to 6 new plates containing 19 ml of F12 medium each). • 6. Plates are incubated at […]+5% CO2 for ˜3 days or until cell are confluent. • 7. The 60 large plates are then split into 60 roller bottles (100-150 million cells/bottle). Medium is aspirated off, 2 ml of Trypsin-EDTA are added to each plate and incubated at RT for ˜2 minutes or until cells have lifted off plates. Eight ml of F12 medium are added to each plate to resuspend cells and the entire 10 ml are added to 1 roller bottle containing 90 ml of the F12 medium. • 8. The 60 roller bottles are immediately placed on their sides and transferred to the roller bottle incubator. They are incubated at 37° C.+5% CO2 for ˜3-5 days. Cells are spun at 30-40% motor speed in the Forma incubator. • 9. Medium is poured off and cells are washed 2× in PBS. • 10. Cells are then scraped off in 20 ml of PBS and the bottles are rinsed again with 5 ml of PBS to remove any remaining cells. Cells are stored on ice before membrane preparation. • 11. The yield for 60 D3 roller bottles has varied from ˜260-500 mg. • Note: All tissue culture reagents are from Gibco-BRL. C. Membrane Preparation
The cells are harvested into 250 ml centrifuge tubes with 100 volumes of cold phosphate buffered saline (PBS) and spun down (1200×G for 10 min at 4° C.). The medium is removed and 100 ml PBS are added to each centrifuge tube, cells are resuspend and spun down again. The PBS is removed and the final pellet is homogenized in an appropriate volume of 10% DMSO with a polytron on ice at a medium setting.
1. 0.5M Tris Buffer, pH 7.7 • a) 44.4 g Tris HCl 26.5 g Tris Base q.s. to 1 Liter (0.5 M Tris buffer, pH 7.7 at 37° C.) • b) make a 1:10 dilution in distilled H2O (0.05 M. Tris buffer, pH 7.7) 2. Tris Buffer Containing Physiological Salts • a) Stock buffer • NaCl 7.014 g • KCl 0.372 g • CaCl2 0.222 g • MgCl2 0.204 g • q.s. To 100 ml with 0.5 M. Tris Buffer • b) Dilute 1:10 in distilled H2O […]

[1] abbreviates: the 16th table, read-out: D3 Ki.
[2] abbreviates: the 13th table, unit inferred, read-out: D3Ki.
[3] abbreviates: the 14th table, read-out: D3 Ki.
Setting [4] is: the 21st table, read-out: D3 Ki.
Where [5] appears, read: the 18th table, read-out: D3 Ki.
Setting [6] is: the 15th table, read-out: D3 Ki.

pKi: −log10 of the molar value. Read-outs that look alike come from different tables or passages of the source.

T1 sequence (P35462 whole entry): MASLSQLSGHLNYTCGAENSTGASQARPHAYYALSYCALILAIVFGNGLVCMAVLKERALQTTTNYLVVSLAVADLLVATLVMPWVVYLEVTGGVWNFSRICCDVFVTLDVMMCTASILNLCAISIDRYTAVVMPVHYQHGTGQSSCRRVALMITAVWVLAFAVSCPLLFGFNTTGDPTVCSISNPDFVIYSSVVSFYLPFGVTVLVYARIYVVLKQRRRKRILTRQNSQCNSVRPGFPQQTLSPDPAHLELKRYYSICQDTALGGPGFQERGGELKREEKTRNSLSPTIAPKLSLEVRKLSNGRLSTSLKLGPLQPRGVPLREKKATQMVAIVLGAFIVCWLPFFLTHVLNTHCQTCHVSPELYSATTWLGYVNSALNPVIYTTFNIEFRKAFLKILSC

For the compound `Nc1ccc(O)cc1C(=O)NCCCCN1CCCN(c2csc3cc(F)ccc23)CC1` [compound 817264], the pKi (Table 2, read-out: D3K1) was 8.19 and the pKi under setting [1] is 8.19.
Consider `O=C(Nc1cccc(CN2CCN(c3csc4cc(F)ccc34)CC2)c1)c1cccnc1Cl` [compound 822186], for which the pKi (the 19th table, read-out: D3 Ki) was 7.30.
Regarding `O=C(NCCCCN1CCCN(c2csc3cc(F)ccc23)CC1)c1ccc(F)cc1` [S981846], the pKi under setting [2] was 7.57.
Regarding `O=C(NCCCCCN1CCCN(c2csc3cc(F)ccc23)CC1)c1cc2sccc2s1` [S984502], the pKi under setting [2] is 8.19.
Consider `O=C(NCCCCCN1CCN(c2csc3cc(C(F)(F)F)ccc23)CC1)c1cccc2[nH]ccc12` [compound 826798], for which the pKi runs as follows: (read-out: D3K1) 8.19; under setting [3], 8.19.
As for `C[C@@H]1CN(c2csc3cc(C(F)(F)F)ccc23)C[C@H](C)N1CCCCNC(=O)c1ccc(C(F)(F)F)cc1` [compound 826936], under setting [4], the pKi is 7.02.
As to `O=C(NCc1ccoc1CN1CCN(c2csc3cc(F)ccc23)CC1)c1ccc(-c2ccccc2)cc1` [compound 825848], under “the 20th table, read-out: D3 Ki”, the pKi is 6.60.
As for `C[C@@H]1CN(c2csc3cc(F)ccc23)C[C@H](C)N1CCCCNC(=O)c1ccc2[nH]ccc2c1` [compound 826964], under setting [4], the pKi is 7.49.
As to `O=C(NCCCCCCN1CCN(c2csc3cc(C(F)(F)F)ccc23)CC1)c1cccc(C(F)(F)F)c1` [compound 826752], the pKi is, setting by setting: (read-out: D3K1) 7.85; under setting [3], 7.85.
Take `O=C(NCCCCCCN1CCN(c2csc3cc(C(F)(F)F)ccc23)CC1)c1ccc2ccccc2c1` [compound 826751]: the pKi is 8.55 (read-out: D3K1) and 8.55 under setting [3].
As for `Cn1c(C(=O)NCCCCCCN2CCN(c3csc4cc(C(F)(F)F)ccc34)CC2)cc2ccccc21` [compound 826739], the pKi is 8.68 (read-out: D3K1) and 8.68 under setting [3].
For the compound `Cn1c(C(=O)NCc2sccc2CN2CCN(c3csc4cc(F)ccc34)CC2)cc2ccccc21` [compound 826324], the pKi under setting [5] is 6.92.
Turning to `CC1(C)C(CNC(=O)c2cccc(F)c2)C1CN1CCN(c2csc3cc(C(F)(F)F)ccc23)CC1` (centres unmarked) [compound 826274], the pKi (read-out: D3K1) was 7.17.
Turning to `O=C(NCC(CO)CCN1CCN(c2csc3cc(C(F)(F)F)ccc23)CC1)c1cccs1` (centres unmarked) [818926ES], where the note is “Table 2, read-out: D3K1”, the pKi is 6.69.
As for `COc1ccc(C(=O)NCCCCN2C3CCC2CC(c2noc4cc(F)ccc24)C3)cc1OC` (centres unmarked) [compound 816332], under setting [6], the pKi was 6.23.
For `O=C(NCCCCN1CCN(c2c(Cl)sc3cc(F)ccc23)CC1)c1cccs1` [compound 815058], the pKi (read-out: D3K1) was 8.37.
On to `C[C@@H]1CN(c2csc3cc(F)ccc23)C[C@H](C)N1CCCCNC(=O)c1cc2ccccc2s1` [compound 827054], for which the pKi under setting [4] was 7.36.
Consider `O=S(=O)(CCc1cccc2ccccc12)NCC1CC1CN1CCN(c2csc3cc(C(F)(F)F)ccc23)CC1` (centres unmarked) [compound 831910], for which the pKi (the 24th table, read-out: D3 Ki) is 6.56.
Turning to `O=C(NC/C=C\CN1CCN(c2csc3cc(C(F)(F)F)ccc23)CC1)c1ccccc1` [compound 826337], the pKi (read-out: D3K1) was 7.54.
For `C[C@@H]1CN(c2csc3cc(C(F)(F)F)ccc23)C[C@H](C)N1CCCCNC(=O)c1ccc(F)cc1` [compound 826929], the pKi under setting [4] is 6.66.
Take `O=C(NCc1sccc1CN1CCN(c2csc3cc(F)ccc23)CC1)c1csc(-c2cccnc2)n1` [compound 826316]: the pKi under setting [5] is 7.49.
As to `O=C(NCCCCN1CCN(c2csc3cc(C(F)(F)F)ccc23)CC1)c1ccc([N+](=O)[O-])cc1` [compound 815549], for the setting “read-out: D3K1”, the pKi is 8.68.
In the case of `O=C(NCCCCCN1CCN(c2csc3cc(C(F)(F)F)ccc23)CC1)c1cccc2ccccc12` [compound 826768], the pKi is, setting by setting: (read-out: D3K1) 7.64; under setting [3], 7.64.
In the case of `COc1ccc(C(=O)N[C@H](CO)CCCN2CCN(c3csc4cc(C(F)(F)F)ccc34)CC2)cc1` [compound 815692], the pKi reads like this: (Table 2, read-out: D3K1) 6.72; (read-out: D3K1) 6.72; under setting [3], 6.72.
For `CC1CCCCN1CCCNC[C@@H]1C[C@H]1CN1CCN(c2csc3cc(C(F)(F)F)ccc23)CC1` (mixture of isomers) [compound 832277], under “the 23rd table, read-out: D3 Ki”, the pKi was 7.53.
Regarding `CC1(c2ccc(C(=O)NCCCCN3CCCN(c4csc5cc(F)ccc45)CC3)cc2)NC(=O)NC1=O` (centres unmarked) [S982513], under setting [2], the pKi was 9.88.
Take `O=C(NCC(CO)CCN1CCN(c2csc3cc(C(F)(F)F)ccc23)CC1)c1ccsc1` (centres unmarked) [818927ES]: the pKi (Table 2, read-out: D3K1) was 6.79.
Take `O=C(NCCCCN1CCCN(c2csc3cc(F)ccc23)CC1)c1cc(C(F)(F)F)cc(C(F)(F)F)c1` [S981844]: the pKi under setting [2] was 7.41.
Turning to `CN(C)c1cccc(C(=O)NCCCCN2CCCN(c3csc4cc(F)ccc34)CC2)c1` [compound 817268], the pKi is 8.15 (Table 2, read-out: D3K1) and 8.15 under setting [1].
For the compound `Cn1cccc1C(=O)NCCCCN1CCCN(c2csc3cc(F)ccc23)CC1` [S977828], the pKi under setting [2] is 8.16.
As to `O=C(NCCCCCN1CCN(c2csc3cc(F)ccc23)CC1)c1cc2ccccc2s1` [compound 826783], the pKi under setting [3] was 8.57.
With `Cc1nn(-c2ccccc2)nc1C(=O)NCCCCN1CCCN(c2csc3cc(C(F)(F)F)ccc23)CC1` [S980657], the pKi under setting [2] is 6.76.
`Cc1oc(-c2ccc(Cl)cc2)cc1C(=O)NCCCCN1CCCN(c2csc3cc(C(F)(F)F)ccc23)CC1` [S980663]: the pKi under setting [2] was 7.02.
Regarding `C[C@@H]1CN(c2csc3cc(C(F)(F)F)ccc23)C[C@H](C)N1CCCCNC(=O)c1cc2ccccc2n1C` [compound 826950], the pKi under setting [4] is 7.09.
Consider `O=C(NCCCCCN1CCN(c2csc3cc(F)ccc23)CC1)c1ccc2cc[nH]c2c1` [compound 826790], for which the pKi under setting [3] was 8.25.
Take `COc1ccc(C(=O)N[C@@H](CO)CCCN2CCN(c3csc4cc(C(F)(F)F)ccc34)CC2)cc1OC` [compound 815665]: the pKi runs as follows: (read-out: D3K1) 6.79; under setting [3], 6.79.
Take `O=C(NCCCCN1CCN(c2c(Cl)sc3cc(C(F)(F)F)ccc23)CC1)c1ccc([N+](=O)[O-])cc1` [compound 815569]: the pKi (read-out: D3K1) was 7.89.
For `O=C(NCC1CCC1CN1CCN(c2csc3cc(C(F)(F)F)ccc23)CC1)c1cc2ccccc2s1` (centres unmarked) [compound 826292], where the note is “read-out: D3K1”, the pKi is 6.70.
Consider `O=C(NCCCCCN1CCN(c2csc3cc(C(F)(F)F)ccc23)CC1)c1cccc(C(F)(F)F)c1` [compound 826770], for which the pKi is 7.85 (read-out: D3K1) and 7.85 under setting [3].
Consider `O=C(NCCCCN1CCN(c2c(Cl)sc3cc(F)ccc23)CC1)c1ccco1` [compound 815068], for which the pKi (read-out: D3K1) was 8.31.
For the compound `CSc1ncccc1C(=O)NCCCCN1C2CCC1CC(c1noc3cc(F)ccc13)C2` (centres unmarked) [compound 816338], the pKi under setting [6] is 6.16.
Regarding `O=C(Cc1ccccc1)NCC1CCC1CN1CCN(c2csc3cc(C(F)(F)F)ccc23)CC1` (centres unmarked) [compound 826293], the pKi (read-out: D3K1) was 6.62.
`O=C(NCCCCCN1CCCN(c2csc3cc(F)ccc23)CC1)c1cc(-c2ccco2)nc2ccccc12` [compound 827159]: the pKi (Table 2, read-out: D3K1) was 8.23 and the pKi under setting [1] is 8.23.
In the case of `O=C(NC[C@@H]1CCCC[C@H]1CN1CCN(c2csc3cc(C(F)(F)F)ccc23)CC1)c1cc2ccccc2[nH]1` [compound 826285], the pKi (read-out: D3K1) was 6.77.
